Results published in US11479805B2, “Combinatorial single molecule analysis of chromatin” (The General Hospital Corporation, priority 2015, dated 2022).

Columns and labels:
[1] = tested on: acetylation marks in ESCs; experiment: Western blot of acetylation marks in ESCs after HDAC or p300 inhibition; type: cell-based, Mouse; conditions: FIG. 12B, corresponds to FIG. 3D
Method: FIG. 12A-12B. […] (A) Scatter plot of the observed overlap of the indicated modification pair versus the overlap expected by chance. Corresponds to the data in FIG. 3A, 3B. […] Corresponds to the data in FIG. 3D.
(§1) For HDAC inhibition, 6 million ES cells were plated on a 150 cm plate. 0.5M stock solution of Sodium butyrate (Sigma, 303410) was prepared fresh for each experiment, and diluted in cell media to a final concentration of 1 mM. Following 6 hours of treatment (unless otherwise noted in text), cells were collected and washed with PBS. For p300 inhibition, 4 million ES cells were plated on a 150 cm plate. 25 mM stock solution of C646 (Sigma, SML0002) was prepared and diluted in cell media to a final concentration of 35 μM. Cells were treated for 24 hours, then collected and washed with PBS. For EZH2 inhibition, 2.5 million Karpas422 B-cell non-Hodgkin's lymphoma cells were suspended in 10 ml media. A 10 mM stock solution of the EZH2 inhibitor GSK126 (32) was prepared and diluted 1:1000 in cell media. Cells were harvested 3 days following treatment.

[2] = tested on: H3K9ac, H3K27ac, H3K4me3 and H3K27me3 on nucleosomes from ESCs; experiment: Single-molecule decoding of nucleosomes from ESCs treated with HDAC inhibitor or p300 inhibitor; type: cell-based, Mouse; conditions: for change in H3K4me3 or H3K27me3 on nucleosomes: over the course of treatment (sodium butyrate 6 hours, C646 24 hours); for change in acetylation marks (H3K9ac, H3K27ac) on nucleosomes: sodium butyrate 1 mM 6 hours, C646 35 μM 24 hours, vs DMSO; for change in acetylation marks (H3K9ac, H3K27ac) on nucleosomes / preference of acetylation change for H3K4me3-marked nucleosomes (combination H3K27ac and H3K4me3): FIG. 3D; for preference of acetylation change for H3K4me3-marked nucleosomes (combination H3K27ac and H3K4me3): sodium butyrate 6 hours, C646 24 hours
Method: Applicants treated ESCs with a pan-HDAC inhibitor (sodium butyrate; 6 hours) or with a p300 HAT inhibitor (C646; 24 hours) and probed extracted nucleosomes for H3K9ac, H3K27ac, H3K4me3 and H3K27me3.
as §1
10 million cells were collected and washed twice with PBS, then resuspended in 500 μl of Lysis buffer (50 mM Tris-HCl pH 7.5, 150 mM NaCl, 1% Triton® X-100, 0.1% sodium deoxycholate, 5 mM CaCl2), supplemented with protease inhibitors (ThermoFisher Scientific, 78425), phosphatase inhibitors (ThermoFisher Scientific, 78420) and HDAC inhibitors (Sodium butyrate, Sigma 303410). Micrococcal Nuclease (ThermoFisher Scientific, 88216) was added to lysis buffer at a concentration of 1 unit per milliliter. The suspension is incubated at 4° C. for 1 hour to lyse the cells, after which MNase is activated by incubating at 37° C. for 20 min and inactivated by addition of EGTA at a final concentration of 20 mM. Next, Applicants centrifuged the lysate for 10 min at max speed and supernatant was transferred to a new tube. 10% of the lysate was used to extract DNA (QIAGEN PCR purification kit, 28104) and run on 2% agarose gel to verify MNase digestion. 100 μl of the lysate were used for ligation of fluorescent, biotinylated adaptors: sample was diluted 1:1 in ligation reaction mixture containing End-It™ DNA End-Repair Kit (Epicentre, ER0720) and Fast-Link™ DNA Ligation Kit (Epicentre, LK0750H). Ligation buffer (100 μl) contained 20 μl ligase buffer, 5 μl of 10 mM dNTPs, 16 μl of 10 Mm ATP, 8 μl End-It, 8 μl fast-link ligase, 1 μl protease inhibitors, 1 μl phosphatase inhibitors, 2 μl of 50 mM sodium butyrate solution, 8 μl annealed adaptors (see sequences below) and H2O. Following at least two hours of ligation at room temperature, 1.5 ml of PBS (supplemented with inhibitors) was added to the sample. Next, the sample was concentrated on an Amicon ultra-4 centrifugal filter unit with ultracel-100 membrane (Millipore, UFC810024) for 15 minutes, and the Pac1 enzymatic reaction (NEB, R0547S) was performed in order to digest adaptor concatemers (adaptors were designed to form Pac1 restriction site in cases of self-ligation). Following Pac1 digestion, nucleosomes were separated on 10-30% glycerol gradients for 18 hours at 35,000 rpm. Fractions were collected and analyzed on 6% DNA retardation gels (ThermoFisher Scientific, EC6365BOX). Gels were imaged with Typhoon trio+imager (Amersham Biosciences), and fractions containing mono-nucleosomes were combined and concentrated on an Amicon Ultra-0.5 Centrifugal Filter Unit with Ultracel-100 membrane (Millipore, UFC510096). For preparation of biotinylated histones (FIG. 2E), histones were purified from ESCs using acid extraction and TCA precipitation as described previously (89). Histones biotinylation was carried out with EZ-Link Sulfo-NHS-Biotinylation Kit (Thermo Scientific, 21425) according to manufacturer's protocol.

[3] = tested on: H3K27me3 on bivalent nucleosomes of Karpas422 lymphoma cells; experiment: Single-molecule decoding of H3K27me3 and H3K4me3 on nucleosomes from EZH2 gain-of-function lymphoma cells treated with EZH2 inhibitor; type: cell-based, human; conditions: treatment for 3 days, FIG. 2G
Source text: Genomic loci marked by bivalent chromatin in ESCs are frequently deregulated in cancer cells (26). Moreover, the Polycomb and trithorax complexes that catalyze H3K27me3 and H3K4me3 are often mutated in cancer (27, 28). Applicants therefore leveraged the single-molecule platform to investigate these modifications in cancer cells (FIG. 2B, 2C, 10B). First, Applicants examined three cell lines that lack known Polycomb or trithorax mutations: T-cell acute leukemia (DND-41), embryonic kidney (HEK293), and glioblastoma (GSC8). […] Applicants next examined a leukemia line (SKM-1) with a loss-of-function (LOF) mutation of the PRC2 subunit EZH2 (29, 30) (FIG. 2C). Applicants observed a drastic reduction of H3K27me3-marked nucleosomes, consistent with inactivation of this H3K27 methyltransferase. Applicants also examined a lymphoma cell line (Karpas422) with a gain-of-function (GOF) EZH2 mutation that increases its catalytic activity (30). Here Applicants detected H3K27me3 on a very high proportion of nucleosomes (15%). […] Even when controlling for the large fraction of H3K27me3-marked nucleosomes in these cells, the proportion of bivalent nucleosomes is ˜4-fold greater than expected from random overlap. […] This may reflect increased nucleosome turnover and/or preferential demethylation in such regions. […]

SMILES | acetylation marks by Western blot [1] | change in H3K4me3 or H3K27me3 on nucleosomes [2] | change in acetylation marks (H3K9ac, H3K27ac) on nucleosomes [2] | preference of acetylation change for H3K4me3-marked nucleosomes (combination H3K27ac and H3K4me3) [2] | loss of H3K27me3 from bivalent nucleosomes [3]
CC1=NN(c2ccc(C(=O)O)cc2)C(=O)/C1=C\c1ccc(-c2cc(C)c(C)cc2[N+](=O)[O-])o1 [C646] | decrease in acetylation | Neither drug altered | opposite affect | H3K4me3-marked nucleosomes were more likely to retain their initial state | 
CC[C@H](C)n1cc(C)c2c(C(=O)NCc3c(C)cc(C)[nH]c3=O)cc(-c3ccc(N4CCNCC4)nc3)cc21 [GSK126] |  |  |  |  | preferential loss of H3K27me3 from bivalent nucleosomes
CCCC(=O)[O-].[Na+] [sodium butyrate, Sodium butyrate] | increase in acetylation marks | Neither drug altered | significantly increased | increased acetylation preferentially affected H3K4me3-marked nucleosomes | 
